{"source": "ChEMBL document CHEMBL4680361", "about": "“Degradation of Janus Kinase for Potential Application in Immune Response Therapeutics” (ACS Med Chem Lett, 2021)", "key": {"RS4-11": {"system": "RS4-11", "experiment": "Cytotoxicity against human RS4-11 cells assessed as reduction in cell viability measured after 3 days by CellTiter-Glo assay", "assay_type": "functional, cell-based", "settings": "RS4-11, 72 h"}, "IMR-90": {"system": "IMR-90", "experiment": "Cytotoxicity against human IMR-90 cells assessed as effect on cell viability at 10^-10 to 10^-5 M measured after 3 days by CellTiter-Glo assay", "assay_type": "cell-based", "settings": "imr-90, 72 h, dose 0.0001-10 µM, time 3 day"}, "HaCaT": {"system": "HaCaT", "experiment": "Cytotoxicity against human HaCaT cells assessed as effect on cell viability at 10^-10 to 10^-5 M measured after 3 days by CellTiter-Glo assay", "assay_type": "cell-based", "settings": "72 h, dose 0.0001-10 µM, time 3 day"}, "[1]": {"target": "Protein cereblon/Tyrosine-protein kinase JAK1 (Homo sapiens, UniProt P23458+Q96SW2)", "sequence (P23458 whole entry)": "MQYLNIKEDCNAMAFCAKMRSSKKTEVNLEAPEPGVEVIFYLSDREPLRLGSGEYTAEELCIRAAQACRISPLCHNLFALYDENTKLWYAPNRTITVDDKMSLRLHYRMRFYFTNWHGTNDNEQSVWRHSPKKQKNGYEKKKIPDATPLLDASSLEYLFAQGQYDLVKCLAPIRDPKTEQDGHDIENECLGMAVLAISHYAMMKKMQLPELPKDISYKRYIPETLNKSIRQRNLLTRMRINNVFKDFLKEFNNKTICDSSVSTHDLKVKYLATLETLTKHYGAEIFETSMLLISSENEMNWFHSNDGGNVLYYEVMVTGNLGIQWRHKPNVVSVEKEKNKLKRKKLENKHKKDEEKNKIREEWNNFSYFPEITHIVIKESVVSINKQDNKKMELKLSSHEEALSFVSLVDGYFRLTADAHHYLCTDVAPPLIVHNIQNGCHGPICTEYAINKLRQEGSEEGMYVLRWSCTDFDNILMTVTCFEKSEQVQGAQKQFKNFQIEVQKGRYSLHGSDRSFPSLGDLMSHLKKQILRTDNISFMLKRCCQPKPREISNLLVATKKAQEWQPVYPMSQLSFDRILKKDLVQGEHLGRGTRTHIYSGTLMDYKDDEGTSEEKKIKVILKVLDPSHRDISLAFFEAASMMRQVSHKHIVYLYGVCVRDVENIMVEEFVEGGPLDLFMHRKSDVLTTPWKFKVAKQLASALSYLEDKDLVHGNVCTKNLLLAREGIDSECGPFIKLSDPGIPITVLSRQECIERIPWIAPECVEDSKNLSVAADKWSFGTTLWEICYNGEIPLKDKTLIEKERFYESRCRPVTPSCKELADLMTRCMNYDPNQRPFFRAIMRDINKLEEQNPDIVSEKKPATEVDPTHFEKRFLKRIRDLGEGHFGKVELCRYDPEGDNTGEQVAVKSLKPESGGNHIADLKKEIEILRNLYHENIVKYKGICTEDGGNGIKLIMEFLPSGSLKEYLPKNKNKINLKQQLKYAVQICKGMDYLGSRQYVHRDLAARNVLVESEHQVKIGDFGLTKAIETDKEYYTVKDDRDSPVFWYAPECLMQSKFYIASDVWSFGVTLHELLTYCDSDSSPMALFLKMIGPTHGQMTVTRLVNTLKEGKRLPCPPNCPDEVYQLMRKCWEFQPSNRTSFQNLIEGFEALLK", "sequence (Q96SW2 whole entry)": "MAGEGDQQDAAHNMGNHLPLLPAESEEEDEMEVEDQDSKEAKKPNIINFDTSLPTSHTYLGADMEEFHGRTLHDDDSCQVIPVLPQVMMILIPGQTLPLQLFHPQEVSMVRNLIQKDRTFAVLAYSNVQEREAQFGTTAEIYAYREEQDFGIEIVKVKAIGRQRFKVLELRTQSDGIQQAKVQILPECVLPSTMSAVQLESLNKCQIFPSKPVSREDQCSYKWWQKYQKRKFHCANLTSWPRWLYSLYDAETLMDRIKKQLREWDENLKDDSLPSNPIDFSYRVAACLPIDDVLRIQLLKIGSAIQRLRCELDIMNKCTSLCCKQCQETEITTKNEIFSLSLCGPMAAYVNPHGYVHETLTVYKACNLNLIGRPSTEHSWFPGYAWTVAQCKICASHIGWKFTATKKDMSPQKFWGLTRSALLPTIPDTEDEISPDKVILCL", "experiment": "Protac activity at CRBN/JAK1 in human RS4-11 cells assessed as degradation of JAK1 measured after 24 hrs by immunoblotting analysis", "assay_type": "cell-based"}, "[2]": {"system": "Protein cereblon/Tyrosine-protein kinase JAK2 (Homo sapiens), O60674+Q96SW2 [UNDEFINED MUTATION]", "sequence (O60674 whole entry, looked up, change not shown)": "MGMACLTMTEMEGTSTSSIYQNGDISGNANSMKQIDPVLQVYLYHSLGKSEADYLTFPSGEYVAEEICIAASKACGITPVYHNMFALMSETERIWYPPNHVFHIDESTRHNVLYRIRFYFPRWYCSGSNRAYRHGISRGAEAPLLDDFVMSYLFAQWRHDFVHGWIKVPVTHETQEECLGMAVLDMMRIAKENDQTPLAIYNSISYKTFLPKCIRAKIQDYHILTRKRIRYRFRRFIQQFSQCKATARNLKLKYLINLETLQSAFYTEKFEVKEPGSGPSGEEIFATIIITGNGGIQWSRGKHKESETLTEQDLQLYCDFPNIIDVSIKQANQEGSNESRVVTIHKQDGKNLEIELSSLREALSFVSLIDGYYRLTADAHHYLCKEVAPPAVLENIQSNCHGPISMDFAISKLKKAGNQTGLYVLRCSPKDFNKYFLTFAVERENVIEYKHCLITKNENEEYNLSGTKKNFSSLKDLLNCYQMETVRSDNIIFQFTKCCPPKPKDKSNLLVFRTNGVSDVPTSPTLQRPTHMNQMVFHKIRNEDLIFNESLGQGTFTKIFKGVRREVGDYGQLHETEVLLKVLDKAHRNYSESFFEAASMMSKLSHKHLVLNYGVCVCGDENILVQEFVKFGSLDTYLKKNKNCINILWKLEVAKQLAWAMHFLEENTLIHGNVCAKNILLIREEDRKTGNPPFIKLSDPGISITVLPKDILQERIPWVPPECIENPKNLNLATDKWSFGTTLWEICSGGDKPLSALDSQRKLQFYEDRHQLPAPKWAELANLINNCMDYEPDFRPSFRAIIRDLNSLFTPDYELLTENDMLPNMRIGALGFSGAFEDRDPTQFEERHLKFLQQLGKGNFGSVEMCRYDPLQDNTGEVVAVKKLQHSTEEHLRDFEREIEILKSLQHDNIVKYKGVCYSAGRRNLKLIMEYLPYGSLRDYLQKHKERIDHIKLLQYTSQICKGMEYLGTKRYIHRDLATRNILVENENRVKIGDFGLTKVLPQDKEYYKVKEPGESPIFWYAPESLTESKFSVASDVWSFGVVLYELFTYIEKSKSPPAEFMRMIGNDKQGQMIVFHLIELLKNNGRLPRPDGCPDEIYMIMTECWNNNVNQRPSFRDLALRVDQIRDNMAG", "sequence (Q96SW2 whole entry, looked up, change not shown)": "as the sequence (Q96SW2 whole entry) above", "experiment": "Protac activity at CRBN/JAK2 V617 mutant in human HEL cells assessed as decrease in JAK2 V617 mutant protein level at < 60 nM measured after 24 hrs by immunoblotting analysis", "assay_type": "cell-based", "settings": "dose nM <60, time 24.0 hrs"}}, "note": "The source made the active and inactive calls. No cut-off for these calls is given here.", "data": [{"smiles": "CS(=O)(=O)c1ccc(-c2cccc3nc(Nc4ccc(N5CCN(C(=O)CCCCCNc6ccc7c(c6)C(=O)N(C6CCC(=O)NC6=O)C7=O)CC5)cc4)nn23)cc1", "note": "(configuration not stated)", "values": [{"measurement": "IC50", "setting": "RS4-11", "value": 7.3, "unit": "nM"}]}, {"smiles": "O=C1CCC(N2C(=O)c3ccc(NCCCCC(=O)N4CCC(n5cc(-c6cnc7cccc(-c8cc(F)c(CN9CCOCC9)c(F)c8)c7n6)cn5)CC4)cc3C2=O)C(=O)N1", "note": "(configuration not stated)", "values": [{"measurement": "IC50", "setting": "RS4-11", "value": 13.8, "unit": "nM"}]}, {"smiles": "CS(=O)(=O)c1ccc(-c2cccc3nc(Nc4ccc(N5CCN(C(=O)CCCCCCOc6ccc7c(c6)C(=O)N(C6CCC(=O)NC6=O)C7)CC5)cc4)nn23)cc1", "note": "(configuration not stated)", "values": [{"measurement": "IC50", "setting": "RS4-11", "value": 5.4, "unit": "nM"}]}, {"smiles": "CS(=O)(=O)c1ccc(-c2cccc3nc(Nc4ccc(N5CCN(C(=O)CCCCCOc6ccc7c(c6)CN(C6CCC(=O)NC6=O)C7=O)CC5)cc4)nn23)cc1", "note": "(configuration not stated)", "values": [{"measurement": "IC50", "setting": "RS4-11", "value": 32.8, "unit": "nM"}]}, {"smiles": "O=C1CCC(N2C(=O)c3ccc(NCCCCCCCC(=O)N4CCC(n5cc(-c6cnc7cccc(-c8cc(F)c(CN9CCOCC9)c(F)c8)c7n6)cn5)CC4)cc3C2=O)C(=O)N1", "note": "(configuration not stated)", "values": [{"measurement": "IC50", "setting": "RS4-11", "value": 54.4, "unit": "nM"}]}, {"smiles": "O=C1CCC(N2C(=O)c3ccc(NCCCCCC(=O)N4CCC(n5cc(-c6cnc7cccc(-c8cc(F)c(CN9CCOCC9)c(F)c8)c7n6)cn5)CC4)cc3C2=O)C(=O)N1", "note": "(configuration not stated)", "values": [{"measurement": "Activity", "setting": "IMR-90", "value": "Non-Toxic"}, {"measurement": "IC50", "setting": "RS4-11", "value": 2.03, "unit": "nM"}, {"measurement": "Activity", "setting": "HaCaT", "value": "Non-Toxic"}, {"measurement": "DC50", "setting": "[1]", "value": "< 5", "unit": "nM"}]}, {"smiles": "O=C1CCC(N2Cc3ccc(OCCCCCCC(=O)N4CCC(n5cc(-c6cnc7cccc(-c8cc(F)c(CN9CCOCC9)c(F)c8)c7n6)cn5)CC4)cc3C2=O)C(=O)N1", "note": "(configuration not stated)", "values": [{"measurement": "IC50", "setting": "RS4-11", "value": 3.8, "unit": "nM"}]}, {"smiles": "CS(=O)(=O)c1ccc(-c2cccc3nc(Nc4ccc(N5CCN(CC(=O)NCCCCCCCNc6ccc7c(c6)C(=O)N(C6CCC(=O)NC6=O)C7=O)CC5)cc4)nn23)cc1", "note": "(configuration not stated)", "values": [{"measurement": "IC50", "setting": "RS4-11", "value": 63.5, "unit": "nM"}]}, {"smiles": "O=C1CCC(N2Cc3cc(OCCCCCC(=O)N4CCC(n5cc(-c6cnc7cccc(-c8cc(F)c(CN9CCOCC9)c(F)c8)c7n6)cn5)CC4)ccc3C2=O)C(=O)N1", "note": "(configuration not stated)", "values": [{"measurement": "IC50", "setting": "RS4-11", "value": 3.6, "unit": "nM"}]}, {"smiles": "CS(=O)(=O)c1ccc(-c2cccc3nc(Nc4ccc(N5CCN(CC(=O)NCCCCCCCCNc6ccc7c(c6)C(=O)N(C6CCC(=O)NC6=O)C7=O)CC5)cc4)nn23)cc1", "note": "(configuration not stated)", "values": [{"measurement": "Activity", "setting": "[2]", "value": "Active"}, {"measurement": "Activity", "setting": "IMR-90", "value": "Non-Toxic"}, {"measurement": "IC50", "setting": "RS4-11", "value": 8.45, "unit": "nM"}, {"measurement": "Activity", "setting": "HaCaT", "value": "Non-Toxic"}, {"measurement": "DC50", "setting": "[1]", "value": "< 35", "unit": "nM"}]}]}
